Data from patent publication US20260200982A1, “HER RECEPTOR DERIVED PEPTIDES AND METHODS OF USE THEREOF” (Ramot at Tel-Aviv University Ltd., priority 2022, published 2026).
The star is where a group is joined. Myristoyl = CCCCCCCCCCCCCC(=O)*

Experiments:
[1] = tested on: DLD-1 cells; experiment: Colony formation assay, DLD-1; assay type: cell-based, human; settings: 20 μM, 72 hours, FIG. 12
Procedure: (§1) Colony formation assay—Cells were plated onto 12-well plate (6×10^4 cells/well) and treated with either PBS or myr-NLS at the IC50 concentration for 3 days. Cells were collected and replated in 10-cm plates (at 3 dilutions of 1:10, 1:20 and 1:40). After 7-14 days when visible and yet separated colonies were formed, the cells were fixed with 0.1% acetic acid in PBS, and stained with 0.4% crystal violet in 0.1% acetic acid. Total colonies area was calculated using the ImageJ program.
In addition, a colony formation assay was conducted to further examine the anti-tumor effect of the myr-NLS (SEQ ID NO: 5), myr-NLS2 (SEQ ID NO: 15) and myr-NLS4 (SEQ ID NO: 17) peptides. To this end, DLD-1 cells were treated or untreated for 72 hours with 20 μM of the myr-peptides. Cells were then seeded at the same dilutions in new plates until colonies were formed.

[2] = tested on: Panc-1 cells; experiment: Colony formation assay, Panc-1; assay type: cell-based, human; settings: 8 μM, 72 hours, FIG. 8
Procedure: as §1
In order to test the effect of myr-NLS on cell tumorigenicity, a colony formation assay was performed. To this end, Panc-1 and MIA PaCa-2 cells were treated or untreated for 72 hours with IC50 dose of myr-NLS (SEQ ID NO: 5, 8 μM and 4.5 μM respectively). Cells were then seeded at the same dilutions in new plates until colonies were formed.

[3] = tested on: MIA PaCa-2 pancreatic cancer cells; experiment: Methylene blue viability assay, MIA PaCa-2; assay type: cell-based, human; settings: MiaPaCa2; 72 hours; FIGS. 4B and 4C; read-out: IC50 (cell viability)
Source text: (§2) Cell lines—Human breast cancer cell lines SKBR3 [Peles E et al. EMBO J. (1993) 12(3):961-71] and MCF7 [Faigenbloom L et al., Mol Syst Biol. (2015) 11(12):845] and human glioblastoma U87 [Goldberg L et al. Cancer Res. (2006) 66(24):11709-17] cell line, as well as Rat-1 fibroblast cells and H-Ras-transformed Rat-1 cells (EJ cells) [Marom M et al. J Biol Chem. (1995) 270(38):22263-70] and human Panc-1 and MIA PaCa-2 pancreatic cell lines (Rak R et al. Oncoscience. 2014 1(1):39-48; Weisz B et al. Oncogene (1999) 18, 2579±2588) were all grown in Dulbecco's modified Eagle's medium (DMEM; Biological Industries, Beithaemek, Israel). Human colorectal cancer cell lines DLD-1 (ATTC Cat No. CCL-221), HCT-116 (ATTC Cat No. CCL-247) and LNCaP prostate cancer cells were grown in Roswell Park Memorial Institute 1640 (RPMI 1640) medium and McCoy's 5A media, respectively (Sigma-Aldrich). All media were supplemented with antibiotics and 10% heat-inactivated fetal bovine serum (FBS; Gibco). Human breast cell line MCF10A [Bott A et al. Oncotarget. […]
(§3) Methylene blue viability assay—Cells were plated in 96-wells plates at cell densities of 1.5×10^3 (EJ, DLD-1), 3×10^3 (Rat-1, HCT-116, U87), 5×10^3 (SKBR3, MCF7) and 6×10^3 (MCF10A) cells/well. […] IC-50 values were calculated using a non-linear regression model (logarithmic inhibitor vs. normalized response-variable slope) with the GraphPad Prism 6 software.

[4] = molecular target: nucleolin (Homo sapiens, UniProt P19338); experiment: Immunoblotting of cell lysates, nucleolin level; assay type: cell-based; parameters: endogenous in cells; host or cells: DLD-1, Panc-1; settings: DLD-1 or Panc-1 cells; 24 hours; 25 μM and 10 μM; FIGS. 13A-B
Procedure: (§4) Lysate preparation and immunoblotting—Cells were seeded at cell densities of 1.5×10^5 (DLD-1), 1.8×10^5 (HCT-116) and 2.5×10^5 (SKBR3) cells/well, treated as indicated and grown for 24 hours. Following, cells were lysed in solubilization buffer; the lysates were cleared by centrifugation and a boiling gel sample buffer was added. Proteins were resolved by SDS-polyacrylamide gel electrophoresis through 10% polyacrylamide gels, and were electrophoretically transferred to nitrocellulose membranes. Membranes were blocked in TBST buffer containing 6% milk, and blotted with primary antibodies. Following, a secondary antibody linked to horseradish peroxidase was added. Immunoreactive bands were detected with the enhanced chemiluminescence reagent Immobilon Crescendo Western HRP substrate (WBLUR0100; Merck Millipore).

[5] = tested on: Rat-1 fibroblast cells; experiment: Methylene blue viability assay, Rat-1; assay type: cell-based; settings: FIG. 4C
Source text: as §2, §3

[6] = tested on: U87 glioma cells; assay type: cell-based, human; settings: U87; 72 hours; FIGS. 4B and 4C; read-out: IC50 (cell viability)
Source text: (§5) Cell lines—Human breast cancer cell lines SKBR3 [Peles E et al. EMBO J. (1993) 12(3):961-71] and MCF7 [Faigenbloom L et al., Mol Syst Biol. (2015) 11(12):845] and human glioblastoma U87 [Goldberg L et al. Cancer Res. (2006) 66(24):11709-17] cell line, as well as Rat-1 fibroblast cells and H-Ras-transformed Rat-1 cells (EJ cells) [Marom M et al. J Biol Chem. (1995) 270(38):22263-70] and human Panc-1 and MIA PaCa-2 pancreatic cell lines (Rak R et al. Oncoscience. 2014 1(1):39-48; Weisz B et al. Oncogene (1999) 18, 2579±2588) were all grown in Dulbecco's modified Eagle's medium (DMEM; Biological Industries, Beithaemek, Israel). Human colorectal cancer cell lines DLD-1 (ATTC Cat No. CCL-221), HCT-116 (ATTC Cat No. CCL-247) and LNCaP prostate cancer cells were grown in Roswell Park Memorial Institute 1640 (RPMI 1640) medium and McCoy's 5A media, respectively (Sigma-Aldrich). All media were supplemented with antibiotics and 10% heat-inactivated fetal bovine serum (FBS; Gibco). Human breast cell line MCF10A [Bott A et al. Oncotarget. (2017) 8(27):43897-43914] was grown in Dulbeco's Modified Eagle's Medium/Nutrient Mixture F-12 HAM medium (DMEM F-12 HAM; Sigma-Aldrich), supplemented with antibiotics, 5% inactivated horse serum (HS; Invitrogen), 2 mM L-glutamine (Biological Industries, Beithaemek, Israel), 0.1 μg/ml cholera toxin (Sigma-Aldrich), 0.5 μg/ml hydrocortisone (Sigma-Aldrich), 10 μg/ml insulin (Biological Industries, Beithaemek, Israel) and 2 ng/ml EGF (R&D Systems). Cells were incubated at 37° C. in 5% CO2 in air, and the medium was changed every 3-4 days. Cells were passaged in trypsin/disodium ethylenediaminetetraacetic acid (Biological Industries, Beithaemek, Israel) when confluency reached 70%. One day prior to treatment the cells were plated at ~50% confluency in a medium supplemented with 10% FBS or 5% HS, accordingly.
(§6) Methylene blue viability assay—Cells were plated in 96-wells plates at cell densities of 1.5×10^3 (EJ, DLD-1), 3×10^3 (Rat-1, HCT-116, U87), 5×10^3 (SKBR3, MCF7) and 6×10^3 (MCF10A) cells/well. On the following day, cells were treated as indicated, and grown for 72 hours. Cell number determination was performed as described previously. IC-50 values were calculated using a non-linear regression model (logarithmic inhibitor vs. normalized response-variable slope) with the GraphPad Prism 6 software.

[7] = tested on: HCT-116 colon cancer cells; assay type: cell-based, human; settings: HCT116; 72 hours; FIGS. 4B and 4C; read-out: IC50 (cell viability)
Source text: as §5, §6

[8] = tested on: Panc-1 pancreatic cancer cells; assay type: cell-based, human; settings: Panc 1; 72 hours; FIGS. 4B and 4C; read-out: IC50 (cell viability)
Source text: as §5, §6

[9] = tested on: EGFR (ErbB1); experiment: Immunoblotting of cell lysates, EGFR phosphorylation; assay type: cell-based, human; settings: DLD-1 or Panc-1 cells; 24 hours; 25 μM and 10 μM; FIGS. 13A-B
Procedure: as §4

Sequence of nucleolin (P19338 whole entry): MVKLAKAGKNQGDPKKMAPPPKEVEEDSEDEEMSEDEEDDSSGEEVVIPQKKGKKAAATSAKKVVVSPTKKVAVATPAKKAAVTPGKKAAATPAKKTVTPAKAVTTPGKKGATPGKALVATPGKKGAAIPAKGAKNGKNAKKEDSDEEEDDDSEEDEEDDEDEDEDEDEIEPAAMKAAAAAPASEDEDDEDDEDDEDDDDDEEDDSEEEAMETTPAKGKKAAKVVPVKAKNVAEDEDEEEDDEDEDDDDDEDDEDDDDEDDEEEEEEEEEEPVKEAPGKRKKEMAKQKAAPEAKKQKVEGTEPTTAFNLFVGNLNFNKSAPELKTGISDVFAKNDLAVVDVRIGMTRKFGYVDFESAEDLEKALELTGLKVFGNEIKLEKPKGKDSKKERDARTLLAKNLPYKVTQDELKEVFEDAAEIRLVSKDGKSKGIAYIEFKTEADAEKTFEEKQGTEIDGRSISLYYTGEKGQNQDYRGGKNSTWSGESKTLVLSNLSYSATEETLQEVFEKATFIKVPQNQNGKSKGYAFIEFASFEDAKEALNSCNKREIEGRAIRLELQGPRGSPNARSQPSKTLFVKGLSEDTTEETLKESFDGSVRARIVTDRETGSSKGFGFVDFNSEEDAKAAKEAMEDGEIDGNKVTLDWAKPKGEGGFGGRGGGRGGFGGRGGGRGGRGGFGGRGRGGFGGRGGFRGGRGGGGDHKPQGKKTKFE

IC50 [3]: 3.95 µM
levels of expression of nucleolin [4]: reduced the levels of expression
IC50 [6]: 32.2 µM
IC50 [7]: 12.8 µM
IC50 [8]: 8.1 µM
Substance: Myr-RRRHIVRKRTLRRLL-OH (Myristoyl-RRRHIVRKRTLRRLL-OH; SMILES CCCCCCCCCCCCCC(=O)N[C@@H](CCCNC(=N)N)C(=O)N[C@@H](CCCNC(=N)N)C(=O)N[C@@H](CCCNC(=N)N)C(=O)N[C@@H](Cc1c[nH]cn1)C(=O)N[C@H](C(=O)N[C@H](C(=O)N[C@@H](CCCNC(=N)N)C(=O)N[C@@H](CCCCN)C(=O)N[C@@H](CCCNC(=N)N)C(=O)N[C@H](C(=O)N[C@@H](CC(C)C)C(=O)N[C@@H](CCCNC(=N)N)C(=O)N[C@@H](CCCNC(=N)N)C(=O)N[C@@H](CC(C)C)C(=O)N[C@@H](CC(C)C)C(=O)O)[C@@H](C)O)C(C)C)[C@@H](C)CC) [myr-NLS]
colony formation (total colonies area) [1]: fewer and smaller colonies
colony formation (total colonies area) [2]: fewer and smaller colonies
viability of non-transformed Rat-1 cells [5]: had no effect
levels of phosphorylated EGFR [9]: reduced
